In ChEMBL document CHEMBL2331144, “Synthesis and anticancer activity of analogues of phenstatin, with a phenothiazine A-ring, as a new class of microtubule-targeting agents” (Bioorg Med Chem Lett, 2013):

Experiments:
[1] = tested on: SNB-75; assay: Growth inhibition of human SNB75 cells at 10 uM after 48 hrs by sulforhodamine B assay; type: functional; conditions: SNB-75, 48 h, read-out: GI
[2] = tested on: 786-0; assay: Growth inhibition of human 786-0 cells at 10 uM after 48 hrs by sulforhodamine B assay; type: functional; conditions: 786-0, 48 h, read-out: GI
[3] = tested on: PC-3; assay: Growth inhibition of human PC3 cells at 10 uM after 48 hrs by sulforhodamine B assay; type: functional; conditions: PC-3, 48 h, read-out: GI
[4] = tested on: CCRF-CEM; assay: Growth inhibition of human CCRF-CEM cells at 10 uM after 48 hrs by sulforhodamine B assay; type: functional; conditions: read-out: GI
[5] = tested on: MDA-MB-435; assay: Growth inhibition of human MDA-MB-435 cells at 10 uM after 48 hrs by sulforhodamine B assay; type: functional; conditions: MDA-MB-435, 48 h, read-out: GI
[6] = tested on: A498; assay: Growth inhibition of human A498 cells at 10 uM after 48 hrs by sulforhodamine B assay; type: functional; conditions: A498, 48 h, read-out: GI
[7] = Growth inhibition of human NCI-ADR-RES cells at 10 uM after 48 hrs by sulforhodamine B assay; type: functional; conditions: read-out: GI
[8] = tested on: SK-MEL-5; assay: Growth inhibition of human SK-MEL-5 cells at 10 uM after 48 hrs by sulforhodamine B assay; type: functional; conditions: SK-MEL-5, 48 h, read-out: GI
[9] = tested on: T47D; assay: Growth inhibition of human T47D cells at 10 uM after 48 hrs by sulforhodamine B assay; type: functional; conditions: read-out: GI
[10] = tested on: SR; assay: Growth inhibition of human SR cells at 10 uM after 48 hrs by sulforhodamine B assay; type: functional; conditions: read-out: GI
[11] = tested on: COLO 205; assay: Growth inhibition of human COLO205 cells at 10 uM after 48 hrs by sulforhodamine B assay; type: functional; conditions: COLO 205, 48 h, read-out: GI
[12] = tested on: HCT-15; assay: Growth inhibition of human HCT15 cells at 10 uM after 48 hrs by sulforhodamine B assay; type: functional; conditions: HCT-15, 48 h, read-out: GI
[13] = tested on: UACC-62; assay: Growth inhibition of human UACC62 cells at 10 uM after 48 hrs by sulforhodamine B assay; type: functional; conditions: UACC-62, 48 h, read-out: GI
[14] = tested on: NCI-H522; assay: Growth inhibition of human NCI-H522 cells at 10 uM after 48 hrs by sulforhodamine B assay; type: functional; conditions: NCI-H522, 48 h, read-out: GI
[15] = tested on: KM12; assay: Growth inhibition of human KM12 cells at 10 uM after 48 hrs by sulforhodamine B assay; type: functional; conditions: KM12, 48 h, read-out: GI
[16] = tested on: HCT-116; assay: Growth inhibition of human HCT116 cells at 10 uM after 48 hrs by sulforhodamine B assay; type: functional; conditions: HCT-116, 48 h, read-out: GI
[17] = tested on: HOP-92; assay: Growth inhibition of human HOP92 cells at 10 uM after 48 hrs by sulforhodamine B assay; type: functional; conditions: HOP-92, 48 h, read-out: GI
[18] = tested on: MOLT-4; assay: Growth inhibition of human MOLT4 cells at 10 uM after 48 hrs by sulforhodamine B assay; type: functional; conditions: MOLT-4, 48 h, read-out: GI
[19] = tested on: Malme-3M; assay: Growth inhibition of human MALME-3M cells at 10 uM after 48 hrs by sulforhodamine B assay; type: functional; conditions: read-out: GI
[20] = tested on: CAKI-1; assay: Growth inhibition of human CAKI-1 cells at 10 uM after 48 hrs by sulforhodamine B assay; type: functional; conditions: CAKI-1, 48 h, read-out: GI
[21] = tested on: MDA-MB-231; assay: Growth inhibition of human MDA-MB-231 cells at 10 uM after 48 hrs by sulforhodamine B assay; type: functional; conditions: MDA-MB-231, 48 h, read-out: GI
[22] = tested on: RPMI-8226; assay: Growth inhibition of human RPMI8226 cells at 10 uM after 48 hrs by sulforhodamine B assay; type: functional; conditions: RPMI-8226, 48 h, read-out: GI
[23] = tested on: K562; assay: Growth inhibition of human K562 cells at 10 uM after 48 hrs by sulforhodamine B assay; type: functional; conditions: K562, 48 h, read-out: GI
[24] = tested on: MDA-MB-468; assay: Growth inhibition of human MDA-MB-468 cells at 10 uM after 48 hrs by sulforhodamine B assay; type: functional; conditions: MDA-MB-468, 48 h, read-out: GI
[25] = tested on: SF-295; assay: Growth inhibition of human SF295 cells at 10 uM after 48 hrs by sulforhodamine B assay; type: functional; conditions: SF-295, 48 h, read-out: GI
[26] = tested on: RXF 393; assay: Growth inhibition of human RXF393 cells at 10 uM after 48 hrs by sulforhodamine B assay; type: functional; conditions: RXF 393, 48 h, read-out: GI
[27] = tested on: OVCAR-4; assay: Growth inhibition of human OVCAR4 cells at 10 uM after 48 hrs by sulforhodamine B assay; type: functional; conditions: OVCAR-4, 48 h, read-out: GI
[28] = tested on: HOP-62; assay: Growth inhibition of human HOP62 cells at 10 uM after 48 hrs by sulforhodamine B assay; type: functional; conditions: HOP-62, 48 h, read-out: GI
[29] = tested on: HL-60(TB); assay: Growth inhibition of human HL-60(TB) cells at 10 uM after 48 hrs by sulforhodamine B assay; type: functional; conditions: HL-60, 48 h, read-out: GI
[30] = tested on: MCF7; assay: Growth inhibition of human MCF7 cells at 10 uM after 48 hrs by sulforhodamine B assay; type: functional; conditions: MCF7, 48 h, read-out: GI
[31] = tested on: UO-31; assay: Growth inhibition of human UO31 cells at 10 uM after 48 hrs by sulforhodamine B assay; type: functional; conditions: UO-31, 48 h, read-out: GI
[32] = tested on: LOX IMVI; assay: Growth inhibition of human LOXIMVI cells at 10 uM after 48 hrs by sulforhodamine B assay; type: functional; conditions: read-out: GI
[33] = species on record: Ovis aries; assay: Inhibition of sheep brain tubulin polymerization at 100 uM using DAPI by fluorimetry

| SMILES | inhibition of growth at 10 µM [1] [%] | inhibition of growth at 10 µM [2] [%] | inhibition of growth at 10 µM [3] [%] | inhibition of growth at 10 µM [4] [%] | inhibition of growth at 10 µM [5] [%] | inhibition of growth at 10 µM [6] [%] | inhibition of growth at 10 µM [7] [%] | inhibition of growth at 10 µM [8] [%] | inhibition of growth at 10 µM [9] [%] | inhibition of growth at 10 µM [10] [%] | inhibition of growth at 10 µM [11] [%] | inhibition of growth at 10 µM [12] [%] | inhibition of growth at 10 µM [13] [%] | inhibition of growth at 10 µM [14] [%] | inhibition of growth at 10 µM [15] [%] | inhibition of growth at 10 µM [16] [%] | inhibition of growth at 10 µM [17] [%] | inhibition of growth at 10 µM [18] [%] | inhibition of growth at 10 µM [19] [%] | inhibition of growth at 10 µM [20] [%] | further results |
| --- | --- | --- | --- | --- | --- | --- | --- | --- | --- | --- | --- | --- | --- | --- | --- | --- | --- | --- | --- | --- | --- |
| CC(=O)c1cn(C(=O)N2c3ccccc3Sc3ccccc32)c2ccccc12 | 6 | 6.7 | 18.3 | 7.2 | 3 | 1.3 | 4.9 | 8.5 | 25.1 | 31.4 | 1.6 | 8.4 | 16 | 17 | 6.6 | 6.8 | 24.9 | 16.9 | 7.6 | 14 | inhibition of growth at 10 µM [21]: 0%; inhibition of growth at 10 µM [22]: 35.5%; inhibition of growth at 10 µM [23]: 26.2%; inhibition of growth at 10 µM [24]: 14%; inhibition of growth at 10 µM [25]: 0.9%; inhibition of growth at 10 µM [26]: 7%; inhibition of growth at 10 µM [27]: 0%; inhibition of growth at 10 µM [28]: 13.3%; inhibition of growth at 10 µM [29]: 16.5%; inhibition of growth at 10 µM [30]: 0%; inhibition of growth at 10 µM [31]: 24.2%; inhibition of growth at 10 µM [32]: 9% |
| O=C(c1cc2cc(F)ccc2[nH]1)N1c2ccccc2Sc2ccccc21 | 20.6 | 11.2 | 44.7 | 10.1 | 3.2 | 19.1 | 15.6 | 24.5 | 10.1 | 56.9 | 0 | 45.8 | 25.6 | 0 | 1.7 | 46.1 | 4.2 | 31.8 | 3.9 | 17.3 | inhibition [33]: 32%; inhibition of growth at 10 µM [21]: 23.8%; inhibition of growth at 10 µM [22]: 5.8%; inhibition of growth at 10 µM [23]: 34.6%; inhibition of growth at 10 µM [24]: 11.6%; inhibition of growth at 10 µM [25]: 5.7%; inhibition of growth at 10 µM [26]: 7.7%; inhibition of growth at 10 µM [27]: 14.8%; inhibition of growth at 10 µM [28]: 20.6%; inhibition of growth at 10 µM [29]: 1.3%; inhibition of growth at 10 µM [30]: 3.4%; inhibition of growth at 10 µM [31]: 21.6%; inhibition of growth at 10 µM [32]: 33.6% |
